Source: patent publication US9187524B2, “Broad spectrum antibiotic arylomycin analogs” (The Scripps Research Institute, priority 2010, dated 2015)
Read-outs that look alike come from different tables or passages of the source.

How the values were obtained:
Klebsiella pneumoniae = test: microbe, parasite or virus in culture; format: cell-based; conditions: Table 13
[1] = system: lepB(P84L) P. aeruginosa PAO1; test: microbe, parasite or virus in culture; format: cell-based, Pseudomonas aeruginosa; conditions: for MIC: Pseudomonas aeruginosa
[2] = system: Staphylococcus haemolyticus; test: microbe, parasite or virus in culture; format: cell-based; conditions: Table 13
[3] = system: P. aeruginosa PAS2006 (SPase P84S); test: microbe, parasite or virus in culture; format: cell-based; conditions: Pseudomonas aeruginosa, read-out: MIC, P. aeruginosa PAS2006
Bacillus subtilis = test: microbe, parasite or virus in culture; format: cell-based; conditions: Table 13
Clostridium perfringens = test: microbe, parasite or virus in culture; format: cell-based; conditions: read-out: MIC, Clostridium perfringens
[4] = system: E. coli PAS0232 (SPase P84S); test: microbe, parasite or virus in culture; format: cell-based; conditions: Escherichia coli, read-out: MIC, E. coli PAS0232
Helicobacter pylori = test: microbe, parasite or virus in culture; format: cell-based
S. aureus COL = test: microbe, parasite or virus in culture; format: cell-based; conditions: Staphylococcus aureus, read-out: MIC, S. aureus COL
Enterococcus faecalis = test: microbe, parasite or virus in culture; format: cell-based; conditions: Table 13
wild type E. coli MG1655 = test: microbe, parasite or virus in culture; format: cell-based, Escherichia coli; conditions: for MIC: Escherichia coli
B. brevis = test: microbe, parasite or virus in culture; format: cell-based, Brevibacillus brevis; conditions: for MIC: Brevibacillus brevis
Lactobacillus gasseri = test: microbe, parasite or virus in culture; format: cell-based; conditions: Table 13
Rhodococcus erythropolis = test: microbe, parasite or virus in culture; format: cell-based; conditions: Table 13
C. efficiens = test: microbe, parasite or virus in culture; format: cell-based; conditions: Corynebacterium efficiens
S. pyogenes = test: microbe, parasite or virus in culture; format: cell-based, Streptococcus pyogenes; conditions: for MIC: Streptococcus pyogenes
R. equi = test: microbe, parasite or virus in culture; format: cell-based; conditions: Rhodococcus (subgen. Prescottella) equi; Table 4
[5] = biological target: T1, truncated wild type E. coli SPase (Escherichia coli, UniProt P00803); test: biochemical; format: binding
T1 construct: a truncated wild type E. coli SPase that lacks the N-terminal membrane helices; made in house; host or cells: E. coli BL21(DE3)

[6] = biological target: T2, full-length P29S mutant S. aureus SPase (Ser-variant) (Staphylococcus aureus, UniProt P0A070, P29S); test: biochemical; format: binding
T2 construct: Full length His-tagged S. aureus SPase proteins were expressed in and purified from BL21(DE3); His6 (N); made in house; host or cells: E. coli BL21(DE3)

Chlamydia trachomatis = test: microbe, parasite or virus in culture; format: cell-based
S. pneumoniae = test: microbe, parasite or virus in culture; format: cell-based, Streptococcus pneumoniae; conditions: for MIC: Streptococcus pneumoniae
[7] = system: lepB(P84L) E. coli MG1655; test: microbe, parasite or virus in culture; format: cell-based, Escherichia coli; conditions: for MIC: Escherichia coli
[8] = system: wild type P. aeruginosa PAO1; test: microbe, parasite or virus in culture; format: cell-based, Pseudomonas aeruginosa; conditions: for MIC: Pseudomonas aeruginosa
[9] = system: Staphylococcus aureus (different strains); format: cell-based; conditions: Table 13; multiple values: different strains
[10] = biological target: T3, full-length wild type S. aureus SPase (Pro-variant) (Staphylococcus aureus, UniProt P0A070); test: biochemical; format: binding
T3 construct: Full length His-tagged S. aureus SPase proteins were expressed in and purified from BL21(DE3); His6 (N); made in house; host or cells: E. coli BL21(DE3)

[11] = biological target: T4, P84S variant of truncated E. coli SPase (Escherichia coli, UniProt P00803, P84S); test: biochemical; format: binding
T4 construct: a truncated wild type E. coli SPase that lacks the N-terminal membrane helices; made in house; host or cells: E. coli BL21(DE3)

S. agalactiae = test: microbe, parasite or virus in culture; format: cell-based, Streptococcus agalactiae; conditions: for MIC: Streptococcus agalactiae
Clostridium bolteae = test: microbe, parasite or virus in culture; format: cell-based; conditions: Enterocloster bolteae, Table 13
Yersinia pestis = test: microbe, parasite or virus in culture; format: cell-based; conditions: read-out: MIC, Yersinia pestis
wild type S. aureus 8325 = test: microbe, parasite or virus in culture; format: cell-based, Staphylococcus aureus; conditions: for MIC: Staphylococcus aureus
[12] = system: wild type S. epidermidis RP62A; test: microbe, parasite or virus in culture; format: cell-based, Staphylococcus epidermidis; conditions: Staphylococcus epidermidis
Prevotella copris = test: microbe, parasite or virus in culture; format: cell-based; conditions: Table 13
[13] = Table 2B, SPase without resistance-conferring Pro
[14] = Table 2B, SPase with resistance-conferring Pro

CCCCCCCCCCCCCCCC(=O)N(C)[C@H](CO)C(=O)N[C@H](C)C(=O)NCC(=O)N(C)[C@@H]1C(=O)N[C@@H](C)C(=O)N[C@H](C(=O)O)Cc2ccc(O)c(c2)-c2cc1ccc2O [Arylomycin C16]
> 64 µg/mL: MIC (Enterococcus faecalis) | MIC (wild type E. coli MG1655; MG1655, read-out: MIC, Resistant Ec) | MIC (wild type E. coli MG1655; MG1655, read-out: MIC, E. coli) | MIC (B. brevis; Table 4, read-out: MIC, B. brevis) | MIC (B. brevis; Table 13, […], read-out: MIC, Brevibacillus brevis) | MIC (C. efficiens; Table 13, […], read-out: MIC, Corynebacterium efficiens) | MIC ([8]; PAO1, read-out: MIC, Resistant Pa) | MIC (wild type S. aureus 8325; read-out: MIC, Resistant Sa)
39 ± 15 nM: Kd [11]
4 µg/mL: MIC ([1]; PAO1, read-out: MIC, P. aeruginosa P84L) | MIC (Helicobacter pylori; Table 13, […], read-out: MIC, Helicobacter pylori) | MIC (Helicobacter pylori; read-out: MIC, H. pylori) | MIC (Yersinia pestis)
8 µg/mL: MIC ([1]; PAO1, read-out: MIC, Sensitive Pa) | MIC, Sensitive Pa [1, 13] | MIC [3] | MIC (S. pyogenes; Table 4, read-out: MIC, S. pyogenes) | MIC, S. pyogenes (S. pyogenes; Table 14) | MIC (S. pneumoniae; Table 4, read-out: MIC, S. pneumoniae) | MIC, S. pneumoniae (S. pneumoniae; Table 14)
16 to 32 µg/mL: MIC, Staphylococcus aureus [9]
979 ± 69 nM: Kd [5]
>128 µg/mL: MIC, S. agalactiae (S. agalactiae; Table 14)
> 16 µg/mL: MIC (Clostridium perfringens) | MIC (Clostridium bolteae) | MIC (Prevotella copris)
6 µg/mL: MIC (Chlamydia trachomatis; Table 13, […], read-out: MIC, Chlamydia trachomatis) | MIC (Chlamydia trachomatis; eradicated from human HeLa 229 cells, read-out: MIC, C. trachomatis)
>64 µg/mL: MIC, Resistant Ec (wild type E. coli MG1655; [14]) | MIC, Resistant Pa [8, 14] | MIC, Resistant Sa (wild type S. aureus 8325; [14])
2 µg/mL: MIC [2] | MIC [4] | MIC ([7]; MG1655, read-out: MIC, E. coli P84L)
12 µg/mL: MIC (S. aureus COL)
> 128 µg/mL: MIC (Klebsiella pneumoniae) | MIC (Bacillus subtilis) | MIC (wild type E. coli MG1655; MG1655, Table 11, […], read-out: MIC, E. coli MG1655) | MIC (wild type E. coli MG1655; MG1655, Table 13, […], read-out: MIC, Escherichia coli) | MIC (Lactobacillus gasseri) | MIC ([8]; PAO1, Table 11, […], read-out: MIC, P. aeruginosa PAO1) | MIC ([8]; PAO1, Table 13, […], read-out: MIC, Pseudomonas aeruginosa) | MIC (S. agalactiae; Table 4, read-out: MIC, S. agalactiae) | MIC (S. agalactiae; Table 13, […], read-out: MIC, Streptococcus agalactiae) | MIC (wild type S. aureus 8325; Table 11, […], read-out: MIC, S. aureus NTCT 8325)
16 µg/mL: MIC (Rhodococcus erythropolis) | MIC (C. efficiens; Table 4, read-out: MIC, C. efficiens) | MIC (C. efficiens; text b755, read-out: MIC, Corynebacterium efficiens) | MIC (S. pyogenes; Table 13, […], read-out: MIC, Streptococcus pyogenes) | MIC (R. equi) | MIC (S. pneumoniae; Table 13, […], read-out: MIC, Streptococcus pneumoniae)
0.25 µg/mL: MIC ([12]; Table 11, […], read-out: MIC, S. epidermidis RP62A) | MIC ([12]; Table 13, […], read-out: MIC, Staphylococcus epidermidis) | MIC ([12]; read-out: MIC, S. epidermidis)
no activity: activity against B. brevis (B. brevis; MHBII broth and nutrient broth)
1280 ± 278 nM: Kd [10]
130 ± 53 nM: Kd [6]
0.5 µg/mL: MIC ([7]; MG1655, read-out: MIC, Sensitive Ec) | MIC, Sensitive Ec [7, 13] | MIC ([12]; read-out: MIC, Sensitive Se)
